LogP data for 85 molecules are collected here from patent publication US20230055705A1, “SUBSTITUTED THIOPHENE CARBOXAMIDES AND DERIVATIVES THEREOF” (Bayer Aktiengesellschaft, priority 2019, published 2023).

This series is described as follows: LogP by HPLC on reversed phase columns (EEC directive 79/831 Annex V.A8). Type of series: physicochemical. Here is the method: In the above tables, measurement of LogP values was performed according to EEC directive 79/831 Annex V.A8 by HPLC (High Performance Liquid Chromatography) on reversed phase columns with the following methods: • ^[a]
Calibration was done with straight-chain alkan2-ones (with 3 to 16 carbon atoms) with known LogP values (measurement of LogP values using retention times with linear interpolation between successive alkanones). Lambda-max-values were determined using UV-spectra from 200 nm to 400 nm and the peak values of the chromatographic signals.

Turning to `O=C(N[C@H]1CCCNC1=O)c1sc(Cl)c(Cl)c1Cl` [I.126], the LogP was 2.24^[a]. Turning to `CNC(=O)CNC(=O)c1sc(Cl)c(Cl)c1Cl` [I.073], the LogP is 2.07^[a].

Turning to `NC(=O)C1(NC(=O)c2sc(Cl)c(Cl)c2Cl)CC1` [I.060], the LogP is 2.00^[a]. With `CN(C)C(=S)CNC(=O)c1sc(Cl)c(Cl)c1Cl` [I.129], the LogP is 3.68^[a].

Turning to `CCSC(=O)CNC(=O)c1sc(Cl)c(Cl)c1Cl` [I.036], the LogP was 3.75^[a]. In the case of `CC(C)C(C#N)NC(=O)c1sc(Cl)c(Cl)c1Cl` (stereo not shown) [I.130] it was 3.81^[a].

Regarding `CCOC(=O)CN(C(=O)c1sc(Cl)c(Cl)c1Cl)C1CC1` [I.116], the LogP is 3.78^[a]. The same measure for `O=C(NC1CCCCNC1=O)c1sc(Cl)c(Cl)c1Cl` (stereo not shown) [I.125]: 2.93^[a]; for `CCOC(=O)C(NC(=O)c1sc(Cl)c(Cl)c1Cl)OC` (stereo not shown) [I.017]: 3.57^[a]; for `COC(=O)C1(NC(=O)c2sc(Cl)c(Cl)c2Cl)CSC1` [I.080]: 3.50^[a]. In the case of `CCCOC(=O)C1(NC(=O)c2sc(Cl)c(Cl)c2Cl)CCC1` [I.101] it was 4.74^[a]. The same measure for `COC(=O)C1(NC(=O)c2sc(Cl)c(Cl)c2Cl)CCOC1` (stereo not shown) [I.076]: 3.00^[a]; for `CCOC(=O)C(NC(=O)c1sc(Cl)c(Cl)c1Cl)C(=O)OCC` [I.006]: 4.19^[a]. Consider `CCSC(=O)C(NC(=O)c1sc(Cl)c(Cl)c1Cl)C(C)C` (stereo not shown) [I.040], for which the LogP was 5.34^[a]. In the case of `CCOC(=O)[C@H](CO)NC(=O)c1sc(Cl)c(Cl)c1Cl` [I.083] it was 2.78^[a]; in that of `O=C1CC(NC(=O)c2sc(Cl)c(Cl)c2Cl)CN1` (stereo not shown) [I.028], 1.86^[a]. The same measure for `CCSC(=O)C(NC(=O)c1sc(Cl)c(Cl)c1Cl)C(C)C` (stereo not shown) [I.090]: 5.45^[a]; for `COC(=O)[C@H](Cc1ccccc1)NC(=O)[C@H](CC(=O)O)NC(=O)c1sc(Cl)c(Cl)c1Cl` [I.074]: 3.19^[a].

Regarding `COC(=O)[C@H](CCC(N)=O)NC(=O)c1sc(Cl)c(Cl)c1Cl` [I.082], the LogP was 2.19^[a]. For `CCOC(=O)C1(CNC(=O)c2sc(Cl)c(Cl)c2Cl)CC1` [I.045], the LogP was 4.27^[a]. `COC(=O)C1(NC(=O)c2sc(Cl)c(Cl)c2Cl)CCC(F)(F)CC1` [I.072]: the LogP is 3.99^[a]. In the case of `COC(=O)[C@H](CCC(=O)O)NC(=O)c1sc(Cl)c(Cl)c1Cl` [I.075] it was 2.57^[a]; in that of `O=C(NC(Cc1c[nH]c2ccccc12)C(=O)O)c1sc(Cl)c(Cl)c1Cl` (stereo not shown) [I.003], 3.31^[a]. In the case of `O=C(NC1CCSC1=O)c1sc(Cl)c(Cl)c1Cl` (stereo not shown) [I.023] it was 3.17^[a]; in that of `CCNC(=O)[C@@H](NC(=O)c1sc(Cl)c(Cl)c1Cl)C(C)C` [I.094], 3.43^[a]. The same measure for `N#CC1(NC(=O)c2sc(Cl)c(Cl)c2Cl)CCC(C2CCCCC2)CC1` (stereo not shown) [I.134]: 6.41^[a]; for `N#CNC(=O)C1(NC(=O)c2sc(Cl)c(Cl)c2Cl)CC1` [I.107]: 2.57^[a]; for `O=C1SCCC1NC(=S)c1sc(Cl)c(Cl)c1Cl` (stereo not shown) [I.019]: 4.37^[a]. Consider `N#CC(NC(=O)c1sc(Cl)c(Cl)c1Cl)c1ccccc1` (stereo not shown) [I.034], for which the LogP is 3.92^[a].

For `CN(CC#N)C(=O)CNC(=O)c1sc(Cl)c(Cl)c1Cl` [I.063], the LogP is 2.62^[a].

`COC(=O)C1(NC(=O)c2sc(Cl)c(Cl)c2Cl)CC(F)(F)C1` [I.088]: the LogP is 3.65^[a].

Consider `O=C(CNC(=O)c1sc(Cl)c(Cl)c1Cl)NO` [I.148], for which the LogP was 1.70^[a]. On to `O=C(CNC(=O)c1sc(Cl)c(Cl)c1Cl)Sc1ccccc1` [I.042], for which the LogP is 4.27^[a].

As for `CCNC(=O)SC[C@H](NC(=O)c1sc(Cl)c(Cl)c1Cl)C(=O)OC` [I.141], the LogP is 3.36^[a]. The same measure for `CNC(=S)CNC(=O)c1sc(Cl)c(Cl)c1Cl` [I.128]: 2.89^[a]; for `O=C(NC1(C(=O)NO)CC1)c1sc(Cl)c(Cl)c1Cl` [I.050]: 1.91^[a]. In the case of `CCOC(=O)C1(NC(=S)c2sc(Cl)c(Cl)c2Cl)CC1` [I.037] it was 4.61^[a]. In the case of `CCOC(=O)C1(NC(=O)c2sc(Cl)c(Cl)c2Cl)CCCC1` [I.070] it was 4.61^[a]; in that of `N#CC1(NC(=O)c2sc(Cl)c(Cl)c2Cl)CC1` [I.032], 2.88^[a]. With `CC(C)(C#N)NC(=O)c1sc(Cl)c(Cl)c1Cl` [I.132], the LogP is 3.19^[a]. The same measure for `O=C(CNC(=O)c1sc(Cl)c(Cl)c1Cl)SCc1ccccc1` [I.041]: 4.56^[a]; for `CC(C)OC(=O)C1(C2(NC(=O)c3sc(Cl)c(Cl)c3Cl)CC2)CC1` [I.027]: 5.35^[a].

Take `N#CCNC(=O)CNC(=O)c1sc(Cl)c(Cl)c1Cl` [I.062]: the LogP was 2.21^[a]. In the case of `CSCCC(NC(=O)c1sc(Cl)c(Cl)c1Cl)C(=O)O` (stereo not shown) [I.051] it was 3.01^[a]. The same measure for `COC(=O)CC(C)NC(=O)c1sc(Cl)c(Cl)c1Cl` (stereo not shown) [I.135]: 3.64^[a]; for `CCOC(=O)C1(NC(=O)c2sc(Cl)c(Cl)c2Cl)CSC1` [I.085]: 3.92^[a].

On to `CCOC(=O)C1(C2(NC(=O)c3sc(Cl)c(Cl)c3Cl)CC2)CC1` [I.047], for which the LogP was 4.83^[a]. In the case of `CCOC(=O)CCNC(=O)c1sc(Cl)c(Cl)c1Cl` [I.026] it was 3.46^[a]; in that of `COC(=O)C1(NC(=O)c2sc(Cl)c(Cl)c2Cl)CCC1` [I.112], 3.69^[a]; in that of `CONC(=O)C1(NC(=O)c2sc(Cl)c(Cl)c2Cl)CC1` [I.055], 2.14^[a]. The same measure for `COC(=O)[C@@H](CC(N)=O)NC(=O)c1sc(Cl)c(Cl)c1Cl` [I.014]: 2.11^[a]; for `O=C(NC(CO)C(=O)O)c1sc(Cl)c(Cl)c1Cl` (stereo not shown) [I.056]: 1.94^[a]; for `N#CC1(NC(=O)c2sc(Cl)c(Cl)c2Cl)CCSCC1` [I.133]: 3.72^[a]. In the case of `O=C(NC1CCCNC1=O)c1sc(Cl)c(Cl)c1Cl` (stereo not shown) [I.031] it was 2.20^[a]; in that of `NC(=O)CC(NC(=O)c1sc(Cl)c(Cl)c1Cl)C(=O)O` (stereo not shown) [I.001], 1.81^[a]; in that of `CC(C)(C)OC(=O)C1(NC(=O)c2sc(Cl)c(Cl)c2Cl)CC(F)(F)C1` [I.086], 4.81^[a]. Consider `NC(=S)C1(NC(=O)c2sc(Cl)c(Cl)c2Cl)CC1` [I.105], for which the LogP was 2.62^[a]. The same measure for `COC(=O)[C@H](CC(=O)O)NC(=O)c1sc(Cl)c(Cl)c1Cl` [I.081]: 2.46^[a]; for `N#CC1(NC(=O)c2sc(Cl)c(Cl)c2Cl)CCC(c2ccccc2)CC1` (stereo not shown) [I.131]: 5.00^[a]; for `CC1(C)SC(=O)C1NC(=O)c1sc(Cl)c(Cl)c1Cl` (stereo not shown) [I.024]: 4.04^[a].

Consider `CCOC(=O)C(NC(=O)c1sc(Cl)c(Cl)c1Cl)C(F)(F)F` (stereo not shown) [I.123], for which the LogP is 4.47^[a]. Consider `O=C(NC1(C(=O)OCc2ccccc2)CCC1)c1sc(Cl)c(Cl)c1Cl` [I.100], for which the LogP is 5.00^[a]. The same measure for `CN(CC#N)C(=O)C1(NC(=O)c2sc(Cl)c(Cl)c2Cl)CC1` [I.052]: 2.44^[a]; for `O=C(NC1CCNC1=O)c1sc(Cl)c(Cl)c1Cl` (stereo not shown) [I.004]: 1.98^[a]; for `CC(C)OC(=O)C1(NC(=O)c2sc(Cl)c(Cl)c2Cl)CCC1` [I.150]: 4.74^[a]. The same measure for `O=C(NC1(C(=O)OC2CCC2)CCC1)c1sc(Cl)c(Cl)c1Cl` [I.102]: 4.93^[a]; for `CCOC(=O)C1(NC(=O)c2sc(Cl)c(Cl)c2Cl)CCOCC1` [I.077]: 3.39^[a]; for `O=C(NC1CCOC1=O)c1sc(Cl)c(Cl)c1Cl` (stereo not shown) [I.029]: 2.48^[a].

As to `O=C(N[C@H]1CCOC1=O)c1sc(Cl)c(Cl)c1Cl` [I.121], the LogP was 2.49^[a]. The same measure for `COC(=O)C(CCSC(C)=O)NC(=O)c1sc(Cl)c(Cl)c1Cl` (stereo not shown) [I.127]: 3.94^[a]; for `CCOC(=O)CN(OC)C(=O)c1sc(Cl)c(Cl)c1Cl` [I.018]: 3.64^[a]. On to `NC(=O)CCC(NC(=O)c1sc(Cl)c(Cl)c1Cl)C(=O)O` (stereo not shown) [I.002], for which the LogP is 1.73^[a]. In the case of `COC(=O)C1(NC(=O)c2sc(Cl)c(Cl)c2Cl)CC(C)(C)C1` [I.087] it was 4.48^[a].

In the case of `CCOC(=O)C1(NC(=O)c2sc(Cl)c(Cl)c2Cl)CN(C(=O)OC(C)(C)C)C1` [I.057], the LogP was 4.47^[a].

On to `CCOC(=O)C(CCSC)NC(=O)c1sc(Cl)c(Cl)c1Cl` (stereo not shown) [I.084], for which the LogP was 4.47^[a]. The same measure for `COC(=O)C(NC(=O)c1sc(Cl)c(Cl)c1Cl)(C1CC1)C1CC1` [I.005]: 4.51^[a].

Take `O=C(N[C@H]1CCSC1=O)c1sc(Cl)c(Cl)c1Cl` [I.043]: the LogP is 3.24^[a]. The same measure for `O=C1CC(NC(=O)c2sc(Cl)c(Cl)c2Cl)CCN1` (stereo not shown) [I.030]: 1.93^[a]; for `N#CC(Cc1ccccc1)NC(=O)c1sc(Cl)c(Cl)c1Cl` (stereo not shown) [I.035]: 4.13^[a]. In the case of `COC(=O)C(C)(Cc1ccccc1)NC(=O)c1sc(Cl)c(Cl)c1Cl` (stereo not shown) [I.122] it was 5.11^[a].

In the case of `COC(=O)C(NC(=S)c1sc(Cl)c(Cl)c1Cl)C(C)C` (stereo not shown) [I.093], the LogP was 5.61^[a].

With `CCCCOC(=O)C1(NC(=O)c2sc(Cl)c(Cl)c2Cl)CCC1` [I.099], the LogP was 5.20^[a].

As to `COC(=O)C(C1CC1)N(O)C(=O)c1sc(Cl)c(Cl)c1Cl` (stereo not shown) [I.021], the LogP is 3.00^[a].

As for `CCOC(=O)C(NC(=S)c1sc(Cl)c(Cl)c1Cl)C(C)C` (stereo not shown) [I.092], the LogP is 6.17^[a].

As for `O=C(NC1(C(=O)OC2CCCCC2)CCC1)c1sc(Cl)c(Cl)c1Cl` [I.103], the LogP is 5.84^[a].
